System: MDA-MB-231 multicell spheroids, viability
Experiment: Anticancer human tumor MDA-MB-231 cell line growth inhibition [PI3K];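 note: spheroids exposed to agents for seven days before reading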;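 for viability, T/C: percent of vehicle control luminescence with DMSO treated spheroids as 100%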
Conditions: for IC50: curve of first compound; for viability, T/C: stronger effect = lower value
In short: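 Viability of mixed-cell spheroids was determined after exposure to pairwise combinations, one partner being inavolisib, alpelisib, duvelisib or copanlisib. Highest tested concentration matched clinical Cmax where known and 10 microM where not, descending in half-log steps.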

CNC(=O)c1ccc(N2C(=S)N(c3ccc(C#N)c(C(F)(F)F)c3)C(=O)C2(C)C)cc1F + Cc1nc(NC(=O)N2CCCC2C(N)=O)sc1-c1ccnc(C(C)(C)C(F)(F)F)c1
IC50 (second compound 0.0316 µM): > 10000 nM
IC50 (second compound 0.1 µM): > 10000 nM
IC50 (second compound 0.316 µM): > 10000 nM
IC50 (second compound 1 µM): > 10000 nM
IC50 (second compound 3.16 µM): > 10000 nM
IC50 (second compound 10 µM): > 10000 nM
viability, T/C (second compound 0.0316 µM, first compound 0.0316 µM): 100%
viability, T/C (second compound 0.0316 µM, first compound 0.1 µM): 94%
viability, T/C (second compound 0.0316 µM, first compound 0.316 µM): 93.3%
viability, T/C (second compound 0.0316 µM, first compound 1 µM): 95.7%
viability, T/C (second compound 0.0316 µM, first compound 3.16 µM): 93.8%
viability, T/C (second compound 0.0316 µM, first compound 10 µM): 77.2%
viability, T/C (second compound 0.1 µM, first compound 0.0316 µM): 86.1%
viability, T/C (second compound 0.1 µM, first compound 0.1 µM): 88.3%
viability, T/C (second compound 0.1 µM, first compound 0.316 µM): 89.9%
viability, T/C (second compound 0.1 µM, first compound 1 µM): 85.6%
viability, T/C (second compound 0.1 µM, first compound 3.16 µM): 76.5%
viability, T/C (second compound 0.1 µM, first compound 10 µM): 57.1%
viability, T/C (second compound 0.316 µM, first compound 0.0316 µM): 74.3%
viability, T/C (second compound 0.316 µM, first compound 0.1 µM): 77.5%
viability, T/C (second compound 0.316 µM, first compound 0.316 µM): 74.3%
viability, T/C (second compound 0.316 µM, first compound 1 µM): 76.8%
viability, T/C (second compound 0.316 µM, first compound 3.16 µM): 77.2%
viability, T/C (second compound 0.316 µM, first compound 10 µM): 57.8%
viability, T/C (second compound 1 µM, first compound 0.0316 µM): 71.5%
viability, T/C (second compound 1 µM, first compound 0.1 µM): 69.8%
viability, T/C (second compound 1 µM, first compound 0.316 µM): 68.3%
viability, T/C (second compound 1 µM, first compound 1 µM): 65.9%
viability, T/C (second compound 1 µM, first compound 3.16 µM): 69.5%
viability, T/C (second compound 1 µM, first compound 10 µM): 57.6%
viability, T/C (second compound 3.16 µM, first compound 0.0316 µM): 68.4%
viability, T/C (second compound 3.16 µM, first compound 0.1 µM): 68.8%
viability, T/C (second compound 3.16 µM, first compound 0.316 µM): 68.2%
viability, T/C (second compound 3.16 µM, first compound 1 µM): 68.7%
viability, T/C (second compound 3.16 µM, first compound 3.16 µM): 66.4%
viability, T/C (second compound 3.16 µM, first compound 10 µM): 51.4%
viability, T/C (second compound 10 µM, first compound 0.0316 µM): 62.1%
viability, T/C (second compound 10 µM, first compound 0.1 µM): 62.5%
viability, T/C (second compound 10 µM, first compound 0.316 µM): 63.2%
viability, T/C (second compound 10 µM, first compound 1 µM): 66.4%
viability, T/C (second compound 10 µM, first compound 3.16 µM): 64.1%
viability, T/C (second compound 10 µM, first compound 10 µM): 49.9%

Cn1cnc2c(F)c(Nc3ccc(Br)cc3Cl)c(C(=O)NOCCO)cc21 + Cc1nc(NC(=O)N2CCCC2C(N)=O)sc1-c1ccnc(C(C)(C)C(F)(F)F)c1
IC50 (second compound 0.0316 µM): 273 nM
IC50 (second compound 0.1 µM): 61.1 nM
IC50 (second compound 0.316 µM): < 9.49 nM
IC50 (second compound 1 µM): < 9.49 nM
IC50 (second compound 3.16 µM): < 9.49 nM
IC50 (second compound 10 µM): < 9.49 nM
viability, T/C (second compound 0.0316 µM, first compound 0.00949 µM): 63.2%
viability, T/C (second compound 0.0316 µM, first compound 0.03 µM): 55.5%
viability, T/C (second compound 0.0316 µM, first compound 0.0949 µM): 56.7%
viability, T/C (second compound 0.0316 µM, first compound 0.3 µM): 47.1%
viability, T/C (second compound 0.0316 µM, first compound 0.949 µM): 45.2%
viability, T/C (second compound 0.0316 µM, first compound 3 µM): 29.5%
viability, T/C (second compound 0.1 µM, first compound 0.00949 µM): 58.1%
viability, T/C (second compound 0.1 µM, first compound 0.03 µM): 51.1%
viability, T/C (second compound 0.1 µM, first compound 0.0949 µM): 47.8%
viability, T/C (second compound 0.1 µM, first compound 0.3 µM): 41.4%
viability, T/C (second compound 0.1 µM, first compound 0.949 µM): 40%
viability, T/C (second compound 0.1 µM, first compound 3 µM): 26.1%
viability, T/C (second compound 0.316 µM, first compound 0.00949 µM): 50.4%
viability, T/C (second compound 0.316 µM, first compound 0.03 µM): 43.2%
viability, T/C (second compound 0.316 µM, first compound 0.0949 µM): 48.1%
viability, T/C (second compound 0.316 µM, first compound 0.3 µM): 40.6%
viability, T/C (second compound 0.316 µM, first compound 0.949 µM): 34.3%
viability, T/C (second compound 0.316 µM, first compound 3 µM): 22.1%
viability, T/C (second compound 1 µM, first compound 0.00949 µM): 44.4%
viability, T/C (second compound 1 µM, first compound 0.03 µM): 37.8%
viability, T/C (second compound 1 µM, first compound 0.0949 µM): 38.7%
viability, T/C (second compound 1 µM, first compound 0.3 µM): 37.4%
viability, T/C (second compound 1 µM, first compound 0.949 µM): 33%
viability, T/C (second compound 1 µM, first compound 3 µM): 12.6%
viability, T/C (second compound 3.16 µM, first compound 0.00949 µM): 48.4%
viability, T/C (second compound 3.16 µM, first compound 0.03 µM): 37.1%
viability, T/C (second compound 3.16 µM, first compound 0.0949 µM): 36.2%
viability, T/C (second compound 3.16 µM, first compound 0.3 µM): 36.1%
viability, T/C (second compound 3.16 µM, first compound 0.949 µM): 30.2%
viability, T/C (second compound 3.16 µM, first compound 3 µM): 9.65%
viability, T/C (second compound 10 µM, first compound 0.00949 µM): 39.2%
viability, T/C (second compound 10 µM, first compound 0.03 µM): 32.7%
viability, T/C (second compound 10 µM, first compound 0.0949 µM): 31.6%
viability, T/C (second compound 10 µM, first compound 0.3 µM): 24.7%
viability, T/C (second compound 10 µM, first compound 0.949 µM): 17.9%
viability, T/C (second compound 10 µM, first compound 3 µM): 4.43%

From PubChem BioAssay AID1963958 (Molecular Pharmacology Branch, DTP, NCI, 2024)
